Data set [1] concerns HepG2 cells. The data set can be described thus: Cellular uptake in HepG2 2D cell model with deoxycholic acid pretreatment. To be noted: HepG2 2D model, deoxycholic acid 0.5 h, then 10 μM compound 2 h. The data set is classed as cell-based, human. As to the method:
Cellular uptake of G2 and CPT into 2D HepG2 cell model was performed as described previously with slight modifications. […] Then, cells were cultured in an incubator at 37 °C. After reached 80% confluence, cell monolayers were pretreated with deoxycholic acid at different concentrations for 0.5 h. Next, the inhibitor of deoxycholic acid was removed and cells were washed twice with Hank’s balanced salt solution (HBSS). After 2 h incubation with 10 μM G2 or CPT, cells were washed three times with HBSS and digested with 200 μL of trypsin for 2 min to obtain single cell suspensions. Next, the cells were washed three times with cold HBSS and 250 μL of HBSS was added to resuspend the pellets. Then, the cells were lysed by freeze-thaw three times and sonicated for 10 min. […] The compound concentration was calculated by the corresponding standard curve. The protein concentration of the supernatant was determined by the Bradford method based on a standard curve made by desired concentrations of bovine serum albumin. The cellular uptake was presented as the quantity of G2 or CPT associated with 1 mg of cellular protein [32, 33].
(§1) Both G2 and CPT were measured by HPLC analysis, which was performed using a Shimadzu HPLC system (Shimadzu, Kyoto, Japan). […] The column was maintained at 30 °C and the absorbance detector wavelength was 363 nm. […]

The next data set has as its system HepG2 spheroids. The data set can be described thus: Cellular uptake in HepG2 3D spheroid cell model with deoxycholic acid pretreatment. It counts as cell-based, human. To be noted: HepG2 3D model. As to the method:
The liquid overlay method was employed for the culturing of HepG2 spheroids as described previously. Cells reached logarithmic growth phase were digested by trypsin then centrifuged. The cell number was counted using a hemocytomete and cells were diluted in growth medium to a density of 1 × 10^4 cells/mL. Spheroids were seeded by pipetting 2 mL of the cell suspension into each well of a 6-well ultra-low attachment (ULA) plates (Corning®, Wujiang, China) and incubated for 3 days.
After HepG2 spheroids were prepared as 3.3, they were transferred into 4 mL centrifuge tube and washed twice with HBSS. Then, the spheroids were resuspended with deoxycholic acid at different concentrations and seeded into the 6-well ULA plates again. After being cultured in an incubator for 0.5 h at 37 °C, the spheroids were transferred into 4 mL centrifuge tube and washed twice with HBSS to remove the deoxycholic acid. Then, they were resuspended with 10 μM G2 or CPT and seeded into the 6-well ULA plates. After being cultured in an incubator for 2 h at 37 °C, the spheroids were transferred into 4 mL centrifuge tube and washed three times with HBSS. […]
as §1

A short description of data set [2]: Stability in simulated gastric fluid (SGF). It counts as in vitro ADME. The settings on record: 3 h. Here is the method:
(§2) The stability of G2 and CPT was assessed in SGF, SIF and fresh rat plasma. SGF and SIF were prepared according to a previous report with slight modifications. Briefly, 0.3% (w/v) purified pepsin, 2 g of NaCl and 7 mL of HCl (12 M) were dissolved in 1000 mL of distilled water to obtain SGF (PH 1.2). To make SIF (PH 6.8), 6.8 g of KH2PO4, 1.0% (w/v) purified pancreatin and 77 mL of NaOH (0.2 M) were dissolved in 1000 mL of distilled water. SGF, SIF and rat plasma containing 10 μM G2 or CPT were incubated at 37 °C. At scheduled time points (0, 5, 10, 20, 30, 60, 90, 120, 180 min), 100 μL samples were collected and reaction was quenched immediately by adding 400 μL of ice cold acetonitrile. The mixture was votexed 2 min and centrifuged at 12000 rpm for 10 min. Then, the supernatant was filtered with a filter (0.22 μm) and detected by HPLC.
(§3) To determine the concentration of G2 and CPT in the stability investigation, a C18 (5 μm, 4.6 × 250 mm, Elite, Dalian, China) reverse-phase column was used. The chromatographic separation was performed on isocratic elution with acetonitrile-0.1% formic acid (80:20, v/v) and acetonitrile-0.1% formic acid (60:40, v/v) for G2 and CPT, respectively. Other conditions were the same as cell model.

Data set [3] in a line: Stability in simulated intestinal fluid (SIF). The data set is classed as in vitro ADME. To be noted: SIF pH 6.8, 10 μM, 37 °C, 3 h. As to the method:
as §2, §3

A short description of data set [4]: Stability in fresh rat plasma. It counts as in vitro ADME. The settings on record: 10 μM, 3 h. As to the method: as §2, §3
A short description of data set [5]: In vivo body distribution and pharmacokinetics after oral administration. Set-up: species or system Kunming mice. The settings on record: male, Kunming, mouse. As to the method:
For body distribution investigations, 80 male Kunming mice (weight, 18–22 g; age, 6–8 weeks) were used. The animal experiments in this study were performed under the guidance of the care and use of laboratory animals in Zhejiang University of Technology, Hangzhou, China, and conformed to the National Institutes of Health Guide for Care and Use of Laboratory Animals (Publication No. 85-23). After fasting overnight, mice were received a single dose of G2 or CPT (30 mg/kg, calculated as CPT) suspension by gavage. At desired time (0.5, 1, 2, 4, 6, 8, 12 h), animals were sacrificed. Their blood samples were collected by eyeball removal and immediately centrifuged to separate plasma. The organs (heart, liver, spleen, lung, kidney) were removed and weighed before homogenization. And the plasma and tissue homogenate samples were stored at −80 °C until analysis.
For determination of the compound concentration, 200 μL methanol and 100 μL acetonitrile were added to 100 μL plasma or tissue homogenate to precipitate protein, and 5 μL IS (2 μM) was also added. Mixtures were votexed for 2 min and centrifuged at 12,000 rpm for 10 min at 4 °C. Then, supernatant was transferred to a new tube and evaporated by an EZ-2 personal solvent evaporator (Genevac, Suffolk, UK). Finally, 50 μL of 50% acetonitrile (v/v) was added to re-dissolve the samples. After centrifuged at 13,000 rpm for 10 min, the supernatant was used for HPLC analysis.
To determine G2 and CPT concentration in plasma and tissue homogenate, an Inertsil ODS-SP C18 column (5 μm, 4.6 × 250 mm; GL Sciences) was used. The mobile phase was made up of acetonitrile (A) and 0.1% formic acid (B). CPT was separated by an isocratic elution with 35:65 (v/v) A:B. A gradient eluant ((A:B) 0–3 min: 35:65; 3–8 min: from 35:65 to 80:20; 8–20 min: 80:20; 20–21 min: from 80:20 to 35:65; 21–25 min: 35:65) was used to separate G2. Other conditions were the same as cell model.
The pharmacokinetic analysis using a non-compartmental model with the PKSolver pharmacokinetic software (China Pharmaceutical University, Nanjing, China) was conducted to calculate the key parameters of G2 and CPT. In order to evaluate whether the conjugate had the trend of liver targeting, liver targeting index (LTI) was calculated by Equation (1) below:LTI = AUC0–t’ in liver/AUC0–t in plasma (1) where AUC0–t’ in liver is the AUC0–t of drug in liver and AUC0–t in plasma is the AUC0–t of drug in plasma. All the data were presented as mean ± SD. Statistical analysis were performed by Student’s t-test using the SPSS 22.0 statistical software program (IBM company, Denver, CO, USA), and p < 0.05 was used as the criterion for statistical significant.

For data set [6], the system named is HepG2 cells. The data set can be described thus: Competitive inhibition of antitumor activity (MTT assay) with deoxycholic acid pretreatment. The settings on record: for effect of deoxycholic acid pretreatment on cytotoxicity: HepG2, 1 μM deoxycholic acid 0.5 h, then 1 μM compound 48 h; for viability at 1 µM: Homo sapiens. On the technique in general: Tetrazolium dyes change colour on reduction, which living cells bring about.
Procedure: After reaching logarithmic growth phase, HepG2 cells were passaged and 100 μL of the cell suspension was seeded into 96-well plates at a density of 5 × 10^4 cells/mL, then cells were cultured in an incubator (Thermo Fisher Scientific, Marietta, Ohio, USA) at 37 °C. After reached 80% confluence, cell monolayers were firstly incubated with or without 1 μM deoxycholic acid for 0.5 h. […] Next, cells were further incubated at 37 °C for 48 h. Then 20 μL of MTT reagent (5 mg/mL in PBS) was added and cells were incubated for another 4 h at 37 °C to allow MTT to be metabolized into formazan. Finally, the media was tapped out and 150 μL of DMSO was added to each well to dissolve the formazan crystals. After mixing, the absorbance was quantified at 490 nm using an ELISA Plate Reader (infinite M200 Pro, TECAN, Grodig, Salzburg, Austria).

Where [7] appears, read: heart, po, 30 mg/kg, mice, oral 30 mg/kg calculated as CPT.
Setting [8] is: kidney, po, 30 mg/kg, mice, oral 30 mg/kg calculated as CPT.
Setting [9] is: liver, po, 30 mg/kg, mice, oral 30 mg/kg calculated as CPT.
[10] abbreviates: lung, po, 30 mg/kg, mice, oral 30 mg/kg calculated as CPT.
Where [11] appears, read: plasma, po, 30 mg/kg, mice, oral 30 mg/kg calculated as CPT.
Setting [12] is: spleen, po, 30 mg/kg, mice, oral 30 mg/kg calculated as CPT.

The structures appear in SMILES notation. Read-outs that look alike come from different tables or passages of the source.

One may read the AUC(0-inf) as total exposure, with the tail of the curve extrapolated. Broadly, the AUC(0-t) is the area under the concentration-time curve up to a stated or last time point. As usually defined, the Cmax is the maximum level reached in the sampled fluid or tissue. By Tmax is commonly meant the time at which the peak concentration occurs. As to `CC[C@@]1(O)C(=O)OCc2c1cc1n(c2=O)Cc2cc3ccccc3nc2-1` [CPT, Camptothecin], in the data set with HepG2 cells [1], the “effect of deoxycholic acid pretreatment on uptake” value is “no obvious change”. For the same compound, in the data set with HepG2 spheroids (deoxycholic acid 0.5 h, then 10 μM compound 2 h), the “effect of deoxycholic acid on cellular uptake” value is recorded as “no distinct effect”. Besides, the “degraded rate after incubation in SGF” value in data set [2] (SGF pH 1.2, 10 μM, 37 °C) was 37.9%. The “degraded after incubation in SIF” value in data set [3] was 16.1%. In addition, the “remaining after incubation in rat plasma” value in data set [4] (fresh rat plasma, 37 °C) turned out to be 24.4%. Further, the MRT inf was 6.35 ± 2.71 h in data set [5] (heart, po, 30 mg/kg, heart, mice, oral 30 mg/kg calculated as CPT, read-out: MRT0–∞); 5.32 ± 0.46 h in data set [5] (kidney, po, 30 mg/kg, kidney, mice, oral 30 mg/kg calculated as CPT, read-out: MRT0–∞); 4.26 ± 0.38 h in data set [5] (liver, po, 30 mg/kg, liver, mice, oral 30 mg/kg calculated as CPT, read-out: MRT0–∞); 7.25 ± 1.77 h in data set [5] (lung, po, 30 mg/kg, lung, mice, oral 30 mg/kg calculated as CPT, read-out: MRT0–∞); 3.22 ± 0.578 h in data set [5] (plasma, po, 30 mg/kg, plasma, mice, oral 30 mg/kg calculated as CPT, read-out: MRT0–∞); 6.96 ± 2.95 h in data set [5] (spleen, po, 30 mg/kg, spleen, mice, oral 30 mg/kg calculated as CPT, read-out: MRT0–∞). The AUC(0-inf) in data set [5] (setting [7]) was 3.64 ± 1.61 µM·h; in data set [5] (setting [8]), 5.45 ± 1.19 µM·h; in data set [5] (setting [9]) it was 7.46 ± 1.54 µM·h; in data set [5] (setting [10]), 12.4 ± 4.43 µM·h; in data set [5] (setting [11]), 1.68 ± 0.252 µM·h; in data set [5] (setting [12]), 9.29 ± 2.53 µM·h. Besides, the AUC(0-t) in data set [5] (setting [7]) is 2.86 ± 0.983 µM·h; in data set [5] (setting [8]), 4.83 ± 1.04 µM·h; in data set [5] (setting [9]), 6.95 ± 1.32 µM·h; in data set [5] (setting [10]) it was 9.8 ± 2.59 µM·h; in data set [5] (setting [11]), 1.56 ± 0.26 µM·h; in data set [5] (setting [12]) it was 7.56 ± 1.72 µM·h. For the same compound, the maximum concentration (Cmax) in data set [5] (setting [7]) is 954 ± 207 nM; in data set [5] (setting [8]), 1330 ± 218 nM; in data set [5] (setting [9]), 2080 ± 243 nM; in data set [5] (setting [10]) it was 1640 ± 325 nM; in data set [5] (setting [11]) it was 465 ± 84 nM; in data set [5] (setting [12]), 1530 ± 195 nM. For the same compound, the time to peak (Tmax) in data set [5] (setting [7]) is 0.6 ± 0.2 h; in data set [5] (setting [8]) it was 0.8 ± 0.245 h; in data set [5] (setting [9]), 1 h; in data set [5] (setting [10]), 1.2 ± 0.4 h; in data set [5] (setting [11]) it was 0.5 h; in data set [5] (setting [12]), 0.9 ± 0.2 h. For the same compound, in data set [5] (liver and plasma, mice, oral 30 mg/kg calculated as CPT, read-out: liver targeting index (LTI) = AUC0–t in liver/AUC0–t in plasma), the Kp was 4.84. The “effect of deoxycholic acid pretreatment on cytotoxicity” value in the data set on HepG2 cells [6] is on record as “no distinct effects”.
A word on the viability: it is the share of living cells, or the viability signal relative to a control. As for `CC[C@@]1(OC(=O)COC(=O)CC[C@@H](C)[C@H]2CC[C@H]3[C@@H]4CC[C@@H]5C[C@H](O)CC[C@]5(C)[C@H]4C[C@H](O)[C@]23C)C(=O)OCc2c1cc1n(c2=O)Cc2cc3ccccc3nc2-1` [G2, CPT-20 (S)-O-acetate-deoxycholic acid], the “decrease of cellular uptake compared to deoxycholic acid-free group” value in the data set on HepG2 spheroids (pretreatment with 200 μM deoxycholic acid 0.5 h, 10 μM compound 2 h) is recorded as 66.4%. The “degraded rate after incubation in SGF” value in data set [2] (10 μM, pH 1.2) was 15.0%. Also, in data set [4] (rat, plasma), the “remaining after incubation in rat plasma” value was found to be 42.3%. Also, the “AUC0–t in liver relative to CPT” value in data set [5] (in vivo, po) came to 2.31 fold. In data set [5] (in vivo, po), the “increase of liver targeting index in comparison to CPT” value amounted to 1.67 fold. The Kp in data set [5] (in vivo, po, 30 mg/kg) was 8.07. Also, the MRT inf in data set [5] (in vivo, po, 30 mg/kg, MRT0–∞) was 4.36 ± 0.645 h. Moreover, the “effect of deoxycholic acid pretreatment on cytotoxicity” value in the data set with HepG2 cells [6] was “markedly reduced”. For the same compound, the viability at 1 µM with HepG2 cells [6] (HepG2, read-out: cell viability, HepG2, 1 μM compound 48 h, after pretreatment with 1 μM deoxycholic acid for 0.5 h) stood at 71.1%; in the data set with HepG2 cells [6] (HepG2, read-out: cell viability, HepG2, 1 μM compound 48 h, without deoxycholic acid pretreatment) it was 51.3%.

(Values after paper PMC6472190, “Enhanced Liver Targeting of Camptothecin via Conjugation with Deoxycholic Acid” (Molecules, 2019).)
